{
  "source": "patent US20070264659A1",
  "about": "“LUNG CANCER BIOMARKER DISCOVERY” (priority 2006, published 2007)",
  "tested_on": "lung cancer cell lines A549, NCI-H146 and NCI-H358",
  "test": "Reactivation of 20 identified genes by treatment of demethylating agent (gene expression)",
  "type": "cell-based",
  "details": "lung cancer cells treated with DAC compared with untreated cells; FIG. 4B",
  "description": "Separately, lung cancer cell lines such as A549, NCI-H146 and NCI-H358 are treated with a demethylating agent DAC and assayed for reactivation of genes that are normally repressed in tumor cells. Overlapping genes between the tumor suppressed gene set and the demethylation reactivated gene set are considered to be candidate genes for lung cancer biomarkers. One hundred six (106) such overlapping genes were found (FIG. 1). Methylation sensitive enzyme/nucleic acid sequence based amplification analysis such as Hpa II Mspl enzyme digestion/PCR (or enzyme digestion post-PCR) further removed a few other genes that were not methylated in any of the lung cancer cell lines. To further confirm biochemically that the candidate gene was indeed methylated in tumor cells, bisulfite sequencing assays were conducted and methylation of the final 20 genes was verified.\nGene expression profiles of the 20 genes were created. The expression level of the 20 genes was measured in lung cancer cell lines treated with DAC (FIG. 4B). Methylation status of the genes was also measured using methylation sensitive enzyme/nucleic acid sequence based amplification analysis such as Hpa II/MspI enzyme digestion/PCR (or enzyme digestion post-PCR) method on lung cancer cell lines and the results for the 20 genes is shown in FIG. 4A. The identified genes are not methylated in normal cells. […]",
  "data": [
    {"smiles": "Nc1ncn([C@H]2C[C@H](O)[C@@H](CO)O2)c(=O)n1", "note": "[DAC, 5 aza 2′-deoxycytidine]", "values": [
      {"measurement": "gene expression of the 20 identified genes in lung cancer cells treated with demethylating agent", "result": "reactivated"}
    ]}
  ]
}
